The supplement of paper PMC9938120

Assays:
Assay in all cases: drug sensitivity score (DSS3, normalised partial AUC of % inhibition dose-response) (DSS (score)); higher = more sensitive (stronger inhibition of viability); extreme values may be limits of the assay
FMOC04 = patient-derived high-grade serous ovarian cancer cells; conditions: 72 h; library: FO5A; assay format: 2D, 384-well, CellTiter-Glo
Summary of the method: (§1)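 Cells were dispensed onto 384-well flat clear-bottom plates already holding compounds at five concentrations over a 10,000-fold range, using patient-derived ovarian cancer cells at passage under 10. Incubation lasted 72 h at 37 °C in 5% CO2, after which CellTiter-Glo viability data were processed in Breeze. Higher drug sensitivity scores, each a partial area under the percent-inhibition dose-response curve divided by the log of the upper asymptote, mean more sensitive cells.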

FMOC17 = patient-derived low-grade serous ovarian cancer cells; conditions: 72 h; library: FO5A; assay format: 2D, 384-well, CellTiter-Glo
Summary of the method: as §1

FMOC24 = patient-derived high-grade serous ovarian cancer cells; conditions: 72 h; library: FO5A; assay format: 2D, 384-well, CellTiter-Glo
Summary of the method: as §1

FMOC22 = patient-derived mucinous ovarian cancer cells; conditions: 72 h; library: FO5A; assay format: 2D, 384-well, CellTiter-Glo
Summary of the method: as §1

FMOC02_1 = patient-derived low-grade serous ovarian cancer cells; conditions: 72 h; library: FO5A; assay format: 2D, 384-well, CellTiter-Glo
Summary of the method: as §1

FMOC09 = patient-derived high-grade serous ovarian cancer cells; conditions: 72 h; library: FO5A; assay format: 2D, 384-well, CellTiter-Glo
Summary of the method: as §1

FMOC02_2 = patient-derived low-grade serous ovarian cancer cells; conditions: 72 h; library: FO5A; assay format: 2D, 384-well, CellTiter-Glo
Summary of the method: as §1

FMOC11 = patient-derived high-grade serous ovarian cancer cells; conditions: 72 h; library: FO5A; assay format: 2D, 384-well, CellTiter-Glo
Summary of the method: as §1

FMOC06 = patient-derived mucinous ovarian cancer cells; conditions: 72 h; library: FO5A; assay format: 2D, 384-well, CellTiter-Glo
Summary of the method: as §1

FMOC27 = patient-derived low-grade serous ovarian cancer cells; conditions: 72 h; library: FO5A; assay format: 2D, 384-well, CellTiter-Glo
Summary of the method: as §1

FMOC28 = patient-derived low-grade serous ovarian cancer cells; conditions: 72 h; library: FO5A; assay format: 2D, 384-well, CellTiter-Glo
Summary of the method: as §1

FMOC25_2 = patient-derived low-grade serous ovarian cancer cells; conditions: 72 h; library: FO5A; assay format: 2D, 384-well, CellTiter-Glo
Summary of the method: as §1

FMOC14 = patient-derived high-grade serous ovarian cancer cells; conditions: 72 h; library: FO5A; assay format: 2D, 384-well, CellTiter-Glo
Summary of the method: as §1

FMOC03 = patient-derived mucinous ovarian cancer cells; conditions: 72 h; library: FO5A; assay format: 2D, 384-well, CellTiter-Glo
Summary of the method: as §1

FMOC02_3 = patient-derived low-grade serous ovarian cancer cells; conditions: 72 h; library: FO5A; assay format: 2D, 384-well, CellTiter-Glo
Summary of the method: as §1

FMOC25_1 = patient-derived low-grade serous ovarian cancer cells; conditions: 72 h; library: FO4B; assay format: 2D, 384-well, CellTiter-Glo
Summary of the method: as §1

SMILES | drug sensitivity score (FMOC04) | drug sensitivity score (FMOC17) | drug sensitivity score (FMOC24) | drug sensitivity score (FMOC22) | drug sensitivity score (FMOC02_1) | drug sensitivity score (FMOC09) | drug sensitivity score (FMOC02_2) | drug sensitivity score (FMOC11) | drug sensitivity score (FMOC06) | drug sensitivity score (FMOC27) | drug sensitivity score (FMOC28) | drug sensitivity score (FMOC25_2) | drug sensitivity score (FMOC14) | drug sensitivity score (FMOC03) | drug sensitivity score (FMOC02_3) | drug sensitivity score (FMOC25_1)
O=C(Nc1ccc(OC(F)(F)Cl)cc1)c1cnc(N2CC[C@@H](O)C2)c(-c2cc[nH]n2)c1 [Asciminib] | 0 | 0 | 0.9 | 0 | 0 | 0 | 1 | 0 | 1 | 0 | 0 | 0.1 | 0 | 0 | 0 | 
Cc1c(-c2c(-c3ccc(F)o3)sc3ncnc(O[C@H](Cc4ccccc4OCc4ccnn4CC(F)(F)F)C(=O)O)c23)ccc(OCCN2CCN(C)CC2)c1Cl | 0.05 | 0 | 8 | 0 | 0 | 0 | 0 | 0 | 0 | 0 | 0 | 0 | 0 | 0 | 2.8 | 
CC[C@@H]1[C@H](F)C(=O)N[C@@H]1COc1nccc2cc(C(N)=O)c(OC)cc12 | 0 | 0 | 0 | 0 | 2.6 | 0 | 0.6 | 0 | 0 | 0.5 | 0 | 4 | 0 | 0 | 5.2 | 
Cc1cn(-c2cc(NC(=O)c3ccc(C)c(Nc4nccc(-c5cnccn5)n4)c3)cc(C(F)(F)F)c2)cn1 [Radotinib] | 0 | 0 | 1 | 0 | 0 | 0 | 0 | 0 | 2.4 | 0 | 1.6 | 0.2 | 0 | 0 | 0 | 
CONC(=O)c1ccccc1Nc1cc(Nc2cc(C)nn2C(C)C)ncc1Cl | 0 | 0.3 | 0.2 | 0 | 0 | 1.4 | 1.6 | 0 | 0 | 0 | 0 | 1.7 | 0 | 0 | 1 | 
O=C1Cc2cc(C(=O)NC3C[C@H]4CC[C@@H](C3)N4S(=O)(=O)CC3CCN(CCCC(F)(F)F)CC3)c(Cl)cc2N1 (stereo not given in full) | 0 | 0 | 0 | 0 | 0 | 0 | 0 | 0 | 2.3 | 0 | 0.2 | 0 | 0 | 0 | 0 | 
O=c1[nH]c(=O)n([C@H]2C[C@H](O)[C@@H](CO)O2)cc1C(F)(F)F [Trifluridine] | 0 | 0 | 0 | 0 | 0 | 0 | 0 | 0.3 | 1.2 | 0.5 | 0 | 0.2 | 0 | 0 | 0 | 
CN1C(=O)N[C@H](Cc2c[nH]c3c(Cl)cccc23)C1=O [Necrostatin 2] | 0 | 0.7 | 0 | 0 | 0 | 0 | 0 | 0 | 0 | 0 | 2.5 | 0.3 | 0 | 0 | 0 | 
C[C@H](Nc1ncnc2[nH]cnc12)c1cc2ccc(F)cc2nc1-c1ccccn1 [AMG319] | 0 | 0.1 | 0.7 | 0 | 0 | 0 | 0.1 | 0 | 0 | 0 | 0 | 0 | 0 | 0 | 0 | 
CC[C@@H]1CN(C(=O)NCC(F)(F)F)C[C@@H]1c1cnc2cnc3[nH]ccc3n12 [Upadacitinib] | 0.1 | 0 | 1.2 | 0 | 0 | 0 | 0 | 0 | 1.3 | 0 | 2.1 | 0 | 0 | 0 | 0 | 
O=C(Nc1cc(Oc2cc(F)c(NC(=O)C3(C(=O)Nc4ccc(F)cc4)CC3)cc2F)ccn1)C1CC1 [Altiratinib] | 1.05 | 3 | 8.2 | 4.3 | 4.9 | 1.7 | 5.2 | 2.4 | 6.9 | 5.1 | 3.3 | 9.1 | 5.1 | 5 | 5.1 | 
O[C@H](C[C@H]1c2c(F)cccc2-c2cncn21)[C@H]1CC[C@H](O)CC1 [GDC-0919] | 0 | 0.8 | 0.55 | 0.4 | 0.2 | 0.3 | 3.6 | 1.7 | 1 | 2 | 2.2 | 0.1 | 0.8 | 0.1 | 2.1 | 
Cc1nc(C(=O)NCC(=O)O)c(O)c2ccc(Oc3ccccc3)cc12 [Roxadustat] | 0 | 0 | 3.3 | 0 | 0 | 0 | 0 | 0 | 0 | 0.2 | 0 | 0 | 0 | 0 | 0 | 
Cc1cc(-c2nc(-c3ccc(OC(F)(F)F)cc3)no2)nn1Cc1ccnc(N2CCN(C3CC3)CC2)c1 [BAY 87-2243] |  |  | 0 | 6 |  | 0 | 0 |  | 0 |  |  | 5.3 | 3.1 | 6.4 | 0 | 2.2
CN(C)C[C@@H]1CCn2cc(c3ccccc32)C2=C(C(=O)NC2=O)c2cn(c3ccccc23)CCO1 [Ruboxistaurin] |  |  | 6.45 | 3.2 |  | 7.5 | 9.7 |  | 8.7 |  |  | 9.3 | 6.8 | 3 | 12.8 | 5.4
O=C(NOC[C@H](O)CO)c1ccc(F)c(F)c1Nc1ccc(I)cc1F |  |  | 0.2 | 7.5 |  | 8 | 10.4 |  | 11.3 |  |  | 5.2 | 0.2 | 11.5 | 7 | 7
Cc1[nH]c2ccccc2c1CCNCc1ccc(/C=C/C(=O)NO)cc1 [Panobinostat] |  |  | 13.3 | 9.1 |  | 5.5 | 12.6 |  | 12.8 |  |  | 15.2 | 15.4 | 11.1 | 10.7 | 11.2
CN(C)c1cc2c(cc1Sc1nc3c(N)nccc3n1CCNCC(C)(C)C)OCO2 [CUDC-305] |  |  | 8.05 | 8.9 |  | 9.7 | 12.9 |  | 9.8 |  |  | 15.2 | 9.3 | 16.1 | 13.9 | 12.2
Cc1cc(Nc2cc(N3CCN(C)CC3)nc(Sc3ccc(NC(=O)C4CC4)cc3)n2)n[nH]1 [Tozasertib] |  |  | 0.65 | 2.9 |  | 4.7 | 5 |  | 3.5 |  |  | 3.6 | 0.6 | 2.2 | 5.7 | 2.6
O=c1[nH]c(=O)n([C@H]2C[C@H](O)[C@@H](CO)O2)cc1F [Floxuridine] |  |  | 0 | 9.3 |  | 2.2 | 2.6 |  | 0.8 |  |  | 3.8 | 0.8 | 4.1 | 2.3 | 0.5
C/C=C1\NC(=O)[C@H]2CSSCC/C=C/[C@H](CC(=O)N[C@H](C(C)C)C(=O)N2)OC(=O)[C@H](C(C)C)NC1=O [Romidepsin] |  |  | 32.9 | 26.3 |  | 17.6 | 26.3 |  | 27.6 |  |  | 28.9 | 28.7 | 28.3 | 32.6 | 30.1
COc1ccc(S(=O)(=O)Nc2cccnc2Nc2ccc(O)cc2)cc1 [ABT-751] |  |  | 1.8 | 6.8 |  | 7.3 | 9.4 |  | 7 |  |  | 6.8 | 1.3 | 7.4 | 9.5 | 5
O=C1CN2Cc3c(ccc(Cl)c3Cl)N=C2N1 [Anagrelide] |  |  | 0 | 0 |  | 18.7 | 0 |  | 0.7 |  |  | 0 | 0 | 0 | 0 | 0
COc1cc2ncnc(Nc3ccc(F)c(Cl)c3)c2cc1OCCCN1CCOCC1 [Gefitinib] |  |  | 5.8 | 1.5 |  | 10.9 | 17.3 |  | 5.4 |  |  | 16.5 | 6.6 | 16.2 | 15.1 | 9.8
O=C(CCCCCCC(=O)Nc1ccccc1)NO [Vorinostat] |  |  | 10.1 | 4.6 |  | 3.1 | 9.8 |  | 7.4 |  |  | 8.5 | 6.8 | 5.5 | 7.7 | 5.5
CNC(=O)c1ccccc1Nc1nc(Nc2ccc3c(c2OC)CCC[C@H](N2CCN(CCO)CC2)C3)ncc1Cl |  |  | 5.95 | 7.1 |  | 8.3 | 11.1 |  | 10.3 |  |  | 10.3 | 6 | 7.2 | 11.7 | 9
COC(=O)c1ccc2c(c1)NC(=O)/C2=C(\Nc1ccc(N(C)C(=O)CN2CCN(C)CC2)cc1)c1ccccc1 [Nintedanib] |  |  | 5.85 | 0.6 |  | 4.6 | 8.3 |  | 4.5 |  |  | 2.1 | 3.3 | 1.8 | 11.7 | 0
